# Laboratory results from US20230303549A1, “SUBSTITUTED HETEROARYLOXYPYRIDINES, THE SALTS THEREOF AND THEIR USE AS HERBICIDAL AGENTS” (Bayer Aktiengesellschaft, priority 2020, published 2023).
# Tests used:
# Format in all cases: in vivo
# [1] = system: Polygonum convolvulus (POLCO); assay: Post-emergence herbicidal efficacy at 80 g/ha, greenhouse pot test; details: visual rating vs untreated control after about 3 weeks
# How it was run: (§1)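 Sown in sandy loam, treated 2–3 weeks after sowing at one-leaf stage with WP or EC formulations sprayed post-emergence in water (600 l/ha) plus 0.5% additive. Kept in greenhouse ~3 weeks, then activity scored visually vs untreated controls (100% = plants dead, 0% = like control).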
# Veronica persica (VERPE) [2] = assay: as above; details: visual rating vs untreated control after about 3 weeks
# How it was run: as §1
# Viola tricolor (VIOTR) [3] = assay: as above; details: visual rating vs untreated control after about 3 weeks
# How it was run: as §1
# [4] = system: Amaranthus retroflexus (AMARE); assay: as above; details: visual rating vs untreated control after about 3 weeks
# How it was run: as §1
# [5] = system: Alopecurus myosuroides (ALOMY); assay: as above; details: visual rating vs untreated control after about 3 weeks
# How it was run: as §1
# [6] = system: Abutilon theophrasti (ABUTH); assay: Pre-emergence herbicide efficacy at 80 g/ha, greenhouse pot test; details: visual scoring vs untreated control after about 3 weeks
# How it was run: (§2)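 Seeds were sown in pots and covered with soil, then the compound (WP or EC formulation) was sprayed onto the soil surface as an aqueous suspension or emulsion with 0.5% additive. Pots were kept in a greenhouse, and after about 3 weeks activity was scored visually versus untreated controls (100% = plants dead, 0% = like control).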
# [7] = system: Polygonum convolvulus (POLCO); assay: as above; details: visual scoring vs untreated control after about 3 weeks
# How it was run: as §2
# Ipomoea purpurea (PHBPU) = assay: as above; details: visual scoring vs untreated control after about 3 weeks
# How it was run: as §2
# [8] = system: Digitaria sanguinalis (DIGSA); assay: as above; details: visual scoring vs untreated control after about 3 weeks
# How it was run: as §2
# Veronica persica (VERPE) [9] = assay: as above; details: visual scoring vs untreated control after about 3 weeks
# How it was run: as §2
# Viola tricolor (VIOTR) [10] = assay: as above; details: visual scoring vs untreated control after about 3 weeks
# How it was run: as §2
# [11] = system: Matricaria inodora (MATIN); assay: as above; details: visual scoring vs untreated control after about 3 weeks
# How it was run: as §2
# Setaria viridis (SETVI) [12] = assay: as above; details: visual scoring vs untreated control after about 3 weeks
# How it was run: as §2
# [13] = system: Amaranthus retroflexus (AMARE); assay: as above; details: visual scoring vs untreated control after about 3 weeks
# How it was run: as §2
# [14] = system: Alopecurus myosuroides (ALOMY); assay: as above; details: visual scoring vs untreated control after about 3 weeks
# How it was run: as §2
# Avena fatua (AVEFA) = assay: as above; details: visual scoring vs untreated control after about 3 weeks
# How it was run: as §2
# [15] = system: Echinochloa crus-galli (ECHCG); assay: Post-emergence herbicidal efficacy at 320 g/ha, greenhouse pot test; details: visual rating vs untreated control after about 3 weeks
# How it was run: (§3)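 Post-emergence foliar spray on one-leaf-stage weeds, 2 to 3 weeks from sowing, using WP or EC preparations with 0.5% additive. Damage was judged by eye after roughly 3 weeks compared with untreated controls.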
# Stellaria media (STEME) [16] = assay: as above; details: visual rating vs untreated control after about 3 weeks
# How it was run: as §3
# Veronica persica (VERPE) [17] = assay: as above; details: 320 g/ha, visual rating vs untreated control after about 3 weeks
# How it was run: as §3
# [18] = system: Amaranthus retroflexus (AMARE); assay: as above; details: visual rating vs untreated control after about 3 weeks
# How it was run: as §3
# [19] = system: Alopecurus myosuroides (ALOMY); assay: as above; details: visual rating vs untreated control after about 3 weeks
# How it was run: as §3
# [20] = system: Abutilon theophrasti (ABUTH); assay: Pre-emergence herbicide efficacy at 320 g/ha, greenhouse pot test; details: visual scoring vs untreated control after about 3 weeks
# How it was run: (§4)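 Seeds sown in sandy loam, covered; formulated compound (WP or EC, 0.5% additive) applied to soil surface at 600 L/ha water; pots kept in greenhouse under good growth conditions; visual % damage scored at about 3 weeks relative to untreated.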
# [21] = system: Echinochloa crus-galli (ECHCG); assay: as above; details: visual scoring vs untreated control after about 3 weeks
# How it was run: as §4
# Stellaria media (STEME) [22] = assay: as above; details: visual scoring vs untreated control after about 3 weeks
# How it was run: as §4
# [23] = system: Digitaria sanguinalis (DIGSA); assay: as above; details: visual scoring vs untreated control after about 3 weeks
# How it was run: as §4
# Veronica persica (VERPE) [24] = assay: as above; details: visual scoring vs untreated control after about 3 weeks
# How it was run: as §4
# [25] = system: Matricaria inodora (MATIN); assay: as above; details: visual scoring vs untreated control after about 3 weeks
# How it was run: as §4
# Setaria viridis (SETVI) [26] = assay: as above; details: visual scoring vs untreated control after about 3 weeks
# How it was run: as §4
# [27] = system: Amaranthus retroflexus (AMARE); assay: as above; details: visual scoring vs untreated control after about 3 weeks
# How it was run: as §4
# [28] = system: Alopecurus myosuroides (ALOMY); assay: as above; details: visual scoring vs untreated control after about 3 weeks
# How it was run: as §4
# Poa annua (POAAN) [29] = assay: as above; details: visual scoring vs untreated control after about 3 weeks
# How it was run: as §4
# [30] = system: Abutilon theophrasti (ABUTH); assay: Post-emergence herbicidal efficacy at 320 g/ha, greenhouse pot test; details: visual rating vs untreated control after about 3 weeks
# How it was run: as §3
# Lolium rigidum (LOLRI) = assay: as above; details: visual rating vs untreated control after about 3 weeks
# How it was run: as §3
# Setaria viridis (SETVI) [31] = assay: as above; details: visual rating vs untreated control after about 3 weeks
# How it was run: as §3
# Poa annua (POAAN) [32] = assay: as above; details: visual rating vs untreated control after about 3 weeks
# How it was run: as §3
# Bassia scoparia (KCHSC) [33] = assay: as above; details: visual rating vs untreated control after about 3 weeks
# How it was run: as §3
# Bassia scoparia (KCHSC) [34] = assay: Pre-emergence herbicide efficacy at 320 g/ha, greenhouse pot test; details: dosage 1280 g/ha in Table C6, visual scoring after about 3 weeks
# How it was run: as §4
structure (smiles),measurement,setting,value
Cc1cc(C)c(-c2cc(C(F)F)no2)c(Oc2ncc(F)cn2)n1 [Example I-4],Post-emergence efficacy against Polygonum convolvulus (POLCO),[1],90%
same,Post-emergence efficacy against Veronica persica (VERPE),Veronica persica (VERPE) [2],90%
same,Post-emergence efficacy against Viola tricolor (VIOTR),Viola tricolor (VIOTR) [3],80%
same,Post-emergence efficacy against Amaranthus retroflexus (AMARE),[4],100%
same,Post-emergence efficacy against Alopecurus myosuroides (ALOMY),[5],90%
same,Pre-emergence efficacy against Abutilon theophrasti (ABUTH),[6],100%
same,Pre-emergence efficacy against Polygonum convolvulus (POLCO),[7],90%
same,Pre-emergence efficacy against Ipomoea purpurea (PHBPU),Ipomoea purpurea (PHBPU),80%
same,Pre-emergence efficacy against Digitaria sanguinalis (DIGSA),[8],100%
same,Pre-emergence efficacy against Veronica persica (VERPE),Veronica persica (VERPE) [9],100%
same,Pre-emergence efficacy against Viola tricolor (VIOTR),Viola tricolor (VIOTR) [10],100%
same,Pre-emergence efficacy against Matricaria inodora (MATIN),[11],90%
same,Pre-emergence efficacy against Setaria viridis (SETVI),Setaria viridis (SETVI) [12],100%
same,Pre-emergence efficacy against Amaranthus retroflexus (AMARE),[13],100%
same,Pre-emergence efficacy against Alopecurus myosuroides (ALOMY),[14],90%
same,Pre-emergence efficacy against Avena fatua (AVEFA),Avena fatua (AVEFA),80%
Cc1cc(C)c(-c2cc(C(F)(F)F)on2)c(Oc2ncc(Cl)cn2)n1 [Example I-7],Post-emergence efficacy against Echinochloa crus-galli (ECHCG),[15],90%
same,Post-emergence action against Stellaria media (STEME),Stellaria media (STEME) [16],100%
same,Post-emergence efficacy against Veronica persica (VERPE),Veronica persica (VERPE) [17],100%
same,Post-emergence efficacy against Amaranthus retroflexus (AMARE),[18],90%
same,Post-emergence efficacy against Alopecurus myosuroides (ALOMY),[19],90%
same,Pre-emergence efficacy against Abutilon theophrasti (ABUTH),[20],100%
same,Pre-emergence efficacy against Echinochloa crus-galli (ECHCG),[21],100%
same,Pre-emergence efficacy against Stellaria media (STEME),Stellaria media (STEME) [22],100%
same,Pre-emergence efficacy against Digitaria sanguinalis (DIGSA),[23],100%
same,Pre-emergence efficacy against Veronica persica (VERPE),Veronica persica (VERPE) [24],100%
same,Pre-emergence efficacy against Matricaria inodora (MATIN),[25],100%
same,Pre-emergence efficacy against Setaria viridis (SETVI),Setaria viridis (SETVI) [26],100%
same,Pre-emergence efficacy against Amaranthus retroflexus (AMARE),[27],100%
same,Pre-emergence efficacy against Alopecurus myosuroides (ALOMY),[28],90%
same,Pre-emergence efficacy against Poa annua (POAAN),Poa annua (POAAN) [29],100%
same,Post-emergence efficacy against Viola tricolor (VIOTR),Viola tricolor (VIOTR) [3],90%
same,Post-emergence efficacy against Amaranthus retroflexus (AMARE),[4],80%
same,Post-emergence efficacy against Alopecurus myosuroides (ALOMY),[5],90%
same,Pre-emergence efficacy against Abutilon theophrasti (ABUTH),[6],100%
same,Pre-emergence efficacy against Polygonum convolvulus (POLCO),[7],90%
same,Pre-emergence efficacy against Veronica persica (VERPE),Veronica persica (VERPE) [9],90%
same,Pre-emergence efficacy against Viola tricolor (VIOTR),Viola tricolor (VIOTR) [10],100%
same,Pre-emergence efficacy against Matricaria inodora (MATIN),[11],90%
same,Pre-emergence efficacy against Setaria viridis (SETVI),Setaria viridis (SETVI) [12],100%
same,Pre-emergence efficacy against Amaranthus retroflexus (AMARE),[13],100%
same,Pre-emergence efficacy against Alopecurus myosuroides (ALOMY),[14],100%
Cc1cc(C)c(-c2cc(C(F)F)no2)c(Oc2ncc(Br)cn2)n1 [Example I-41],Post-emergence efficacy against Abutilon theophrasti (ABUTH),[30],90%
same,Post-emergence action against Stellaria media (STEME),Stellaria media (STEME) [16],100%
same,Post-emergence efficacy against Veronica persica (VERPE),Veronica persica (VERPE) [17],100%
same,Post-emergence efficacy against Lolium rigidum (LOLRI),Lolium rigidum (LOLRI),90%
same,Post-emergence efficacy against Setaria viridis (SETVI),Setaria viridis (SETVI) [31],90%
same,Post-emergence efficacy against Amaranthus retroflexus (AMARE),[18],100%
same,Post-emergence efficacy against Poa annua (POAAN),Poa annua (POAAN) [32],100%
same,Post-emergence efficacy against Bassia scoparia (KCHSC),Bassia scoparia (KCHSC) [33],100%
same,Pre-emergence efficacy against Abutilon theophrasti (ABUTH),[20],100%
same,Pre-emergence efficacy against Echinochloa crus-galli (ECHCG),[21],90%
same,Pre-emergence efficacy against Stellaria media (STEME),Stellaria media (STEME) [22],100%
same,Pre-emergence efficacy against Veronica persica (VERPE),Veronica persica (VERPE) [24],100%
same,Pre-emergence efficacy against Matricaria inodora (MATIN),[25],100%
same,Pre-emergence efficacy against Setaria viridis (SETVI),Setaria viridis (SETVI) [26],100%
same,Pre-emergence efficacy against Amaranthus retroflexus (AMARE),[27],100%
same,Pre-emergence efficacy against Alopecurus myosuroides (ALOMY),[28],90%
same,Pre-emergence efficacy against Poa annua (POAAN),Poa annua (POAAN) [29],100%
same,Pre-emergence efficacy against Bassia scoparia (KCHSC),Bassia scoparia (KCHSC) [34],100%
same,Post-emergence efficacy against Polygonum convolvulus (POLCO),[1],80%
same,Post-emergence efficacy against Veronica persica (VERPE),Veronica persica (VERPE) [2],90%
same,Post-emergence efficacy against Amaranthus retroflexus (AMARE),[4],90%
same,Pre-emergence efficacy against Abutilon theophrasti (ABUTH),[6],80%
same,Pre-emergence efficacy against Polygonum convolvulus (POLCO),[7],90%
same,Pre-emergence efficacy against Veronica persica (VERPE),Veronica persica (VERPE) [9],80%
same,Pre-emergence efficacy against Viola tricolor (VIOTR),Viola tricolor (VIOTR) [10],80%
same,Pre-emergence efficacy against Matricaria inodora (MATIN),[11],80%
same,Pre-emergence efficacy against Setaria viridis (SETVI),Setaria viridis (SETVI) [12],80%
same,Pre-emergence efficacy against Amaranthus retroflexus (AMARE),[13],100%
same,Pre-emergence efficacy against Alopecurus myosuroides (ALOMY),[14],80%
Cc1cc(C)c(-c2cc(C(F)F)no2)c(Oc2ccc(Cl)cn2)n1 [Example I-43],Post-emergence efficacy against Abutilon theophrasti (ABUTH),[30],90%
same,Post-emergence efficacy against Echinochloa crus-galli (ECHCG),[15],90%
same,Post-emergence action against Stellaria media (STEME),Stellaria media (STEME) [16],100%
same,Post-emergence efficacy against Veronica persica (VERPE),Veronica persica (VERPE) [17],100%
same,Post-emergence efficacy against Amaranthus retroflexus (AMARE),[18],100%
same,Post-emergence efficacy against Alopecurus myosuroides (ALOMY),[19],90%
same,Post-emergence efficacy against Poa annua (POAAN),Poa annua (POAAN) [32],90%
same,Pre-emergence efficacy against Abutilon theophrasti (ABUTH),[20],100%
same,Pre-emergence efficacy against Echinochloa crus-galli (ECHCG),[21],90%
same,Pre-emergence efficacy against Stellaria media (STEME),Stellaria media (STEME) [22],100%
same,Pre-emergence efficacy against Veronica persica (VERPE),Veronica persica (VERPE) [24],100%
same,Pre-emergence efficacy against Matricaria inodora (MATIN),[25],90%
same,Pre-emergence efficacy against Setaria viridis (SETVI),Setaria viridis (SETVI) [26],100%
same,Pre-emergence efficacy against Amaranthus retroflexus (AMARE),[27],100%
same,Pre-emergence efficacy against Poa annua (POAAN),Poa annua (POAAN) [29],100%
same,Pre-emergence efficacy against Bassia scoparia (KCHSC),Bassia scoparia (KCHSC) [34],100%
same,Post-emergence efficacy against Viola tricolor (VIOTR),Viola tricolor (VIOTR) [3],80%
same,Pre-emergence efficacy against Veronica persica (VERPE),Veronica persica (VERPE) [9],90%
same,Pre-emergence efficacy against Viola tricolor (VIOTR),Viola tricolor (VIOTR) [10],80%
same,Pre-emergence efficacy against Matricaria inodora (MATIN),[11],90%
same,Pre-emergence efficacy against Setaria viridis (SETVI),Setaria viridis (SETVI) [12],90%
same,Pre-emergence efficacy against Amaranthus retroflexus (AMARE),[13],100%
